The values that follow come from patent publication US20160194359A1, “CELL-REACTIVE, LONG-ACTING, OR TARGETED COMPSTATIN ANALOGS AND RELATED COMPOSITIONS AND METHODS” (APELLIS PHARMACEUTICALS, INC., priority 2012, published 2016).

The subject of experiment [1] is complement activation (alternative pathway). To be noted: WO2004/026328; cited from earlier work.
Experiment [2] relates to RBCs from a patient with PNH. The experiment in a line: modified Ham's test with flow cytometry for CD59 and C3d (Example 18). The note with it: for % C′3 (Type I) / % C′3 (Type II) / % C′3 (Type III): cells positive for C3 loading. In kind it is cell-based, human. On the procedure: A modified Ham's test was performed to assess the ability of compstatin analogs to protect PNH RBCs from complement-mediated lysis. […] Exposure to heat inactivated human serum was used as a control representing no significant complement-mediated lysis as complement is inactivated by heat. Exposure to acidified human serum and magnesium (Mg^2+) in the absence of complement inhibitors (pane labeled Mg^2+) was used as a control representing maximum lysis.
Following incubation, cells were stained with antibodies to CD59 and C3d. Cd59 level permitted the classification of the PNH RBCs as Type I, Type II, or Type III. Staining for C3d, a product of C3 activation and cleavage was used as a marker of C3 and C3 activation product deposition (loading). Flow cytometric analysis was performed to assess CD59 and C3d on RBC surfaces and to quantify the percentages of Type I, Type II, and Type III cells present in various samples.
Type I cells (shown in orange in FIG. 12) have normal levels of CD59. Type III cells (shown in blue in FIG. 12) have essentially no detectable CD59. […] Type II cells (shown in purple in FIG. 12) have reduced levels of CD59 as compared with normal or Type I cells and have an intermediate sensitivity to complement-mediated lysis. […] Reduction in or absence of lysis may be evidenced by increased levels of C3 or C3 activation products on Type II cells, as is evident by comparing the level of C3d on Type II cells in the no lysis panel with the level of C3d on Type II cells in the max. lysis panel in both FIGS. 12(A) and 12(B). […] A shift in the relative percentages of Type I, II, and III cells from the percentages present in the max. lysis control panels (Mg^2+) towards the percentages present in the no lysis control panels (heat inactivated serum) is indicative of protection against complement-mediated lysis. The column labeled % C′3 in Table 11 refers to the percentage of cells deemed “positive” for presence of C3 and C3 activation products (“C3 loading”).

Experiment [3] relates to complement activation via the classical pathway. Briefly: classical complement inhibition assay (C3b deposition ELISA). The class given is biochemical, Human. On the procedure: Inhibitory activity of the synthesized compounds was assessed by measuring the effect of the compounds on complement activation via the classical pathway using a standard complement inhibition assay. The protocol measures C3b deposition in an ELISA format. C3b deposition monitored using this method is generated through complement activated by the classical pathway. Briefly, 96-well plates are coated with BSA. Human plasma, chicken ovalbumin (OVA), polyclonal anti-OVA antibodies and compound being tested (referred to as “drug”) are added and incubated, followed by addition of Anti-human C3 HRP-conjugated antibody. After an additional incubation, substrate is added and signal detected. Details of the protocol are as follows:
Protocol for Classical Complement Inhibition Assay
• Ninety-six well plate (polystyrene plate, Thermo Scientific, 9205) • Chicken OVA (Sigma A5503-5G) • Rabbit anti-chicken OVA (Abcam ab1221) • Blocking buffer (Startingblock buffer, Thermo Scientific 37538) • Veronal Buffer (5× concentration, Lonza 12-624E) • Human plasma (collected with Lepirudin at 50 ug/ml final concentration) • Goat anti-human C3 HRP-conjugated Ab (MP Biomedicals, 55237) • Tween-20 Wash Buffer (0.05% Tween 20-PBS buffer) • TMB (Peroxidase substrate, BD 555214)—1:1 mixture of BD 51-2607KC and 51-2606KC. • 1M H2SO4
• 1. […] Read the plate at 450 nm
Data was analyzed using GraphPad Prism5 software. […]
For orientation: An ELISA detects its analyte on a solid surface through an enzyme-linked reagent.

In a further experiment the test system is PNH RBCs. Briefly: modified Ham's assay, comparison with Soliris (Example 19). The class given is cell-based, human. The note with it: CA28-2GS-BF at 50 ug/ml. How it is done: Flow cytometry was performed after antibody staining using antibodies against CD59 and C3d. In this figure, quadrant 1 (Q1) and quadrant 3 (Q3) represent Type III cells. Quadrant 2 (Q2) and quadrant 4 (Q4) represent Types I and II cells. Q1 and Q2 represent cells with a significant and abnormally high amount of C3 activation product (e.g., C3d) deposition.

Experiment [4] has as its target T1, complement component C3 (human) (human, UniProt P01024 23-1663). The experiment in a line: cell-based or functional assay.
Experiment [5] addresses T1, complement component C3 (human). The experiment in a line: cell-based or functional assay. The source holds these as a separate data set.
For experiment [6] the target is unchanged. Briefly: cell-based or functional assay. This is another data set of the same source.

What is called IC50 is the midpoint of a concentration-inhibition curve. For `CC[C@H](C)[C@H](N)C(=O)N[C@H]1CSSC[C@@H](C(=O)N[C@H](C(N)=O)[C@@H](C)O)NC(=O)[C@H](CCCN=C(N)N)NC(=O)[C@H](Cc2cnc[nH]2)NC(=O)[C@H](Cc2cnc[nH]2)NC(=O)CNC(=O)[C@H](Cc2c[nH]c3ccccc23)NC(=O)[C@H](CC(=O)O)NC(=O)[C@H](CCC(N)=O)NC(=O)[C@H](C(C)C)NC(=O)[C@H](C(C)C)NC1=O` [Compstatin], the IC50 in experiment [1] is 12000 nM.

Regarding “CA28-2GS-BF: two CA28-AEEAc-Lys moieties coupled to bifunctional linear 40 kD PEG, NHS-OCO(CH2)3COO-PEG-CO(CH2)3COO-NHS”, the “C3 loading on PNH red cells” value in experiment [2] (at 100 micrograms/ml compound or higher concentrations) is given as “virtually no C3 loading”. Further, the “Type III %” value in experiment [2] (compound at 20 micrograms/ml) was 19.19%; in experiment [2] (compound at 50 micrograms/ml) it was 13.87%; in experiment [2] (compound at 500 micrograms/ml), 37.87%. The “% C′3 (Type I)” value in experiment [2] (compound at 20 micrograms/ml) amounted to 2.18%; in experiment [2] (compound at 40 micrograms/ml) it was 2.84%; in experiment [2] (compound at 50 micrograms/ml), 2.28%; in experiment [2] (compound at 60 micrograms/ml) it was 2.05%; in experiment [2] (compound at 100 micrograms/ml), 0.07%; in experiment [2] (compound at 200 micrograms/ml) it was 0.02%. The “% C′3 (Type I)” value in experiment [2] (compound at 500 micrograms/ml) is given as 0.04%. For the same molecule, the “% C′3 (Type II)” value in experiment [2] (compound at 20 micrograms/ml) worked out at 12.28%; in experiment [2] (compound at 60 micrograms/ml), 13.04%; in experiment [2] (compound at 100 micrograms/ml) it was 0.88%; in experiment [2] (compound at 200 micrograms/ml), 0.26%; in experiment [2] (compound at 500 micrograms/ml), 0.3%. Also, the “% C′3 (Type III)” value in experiment [2] (compound at 20 micrograms/ml) is 0.99%; in experiment [2] (compound at 40 micrograms/ml), 1.21%; in experiment [2] (compound at 50 micrograms/ml), 1.29%; in experiment [2] (compound at 60 micrograms/ml) it was 1.44%; in experiment [2] (compound at 100 micrograms/ml), 0.11%; in experiment [2] (compound at 200 micrograms/ml), 0.02%. In addition, in experiment [2] (compound at 500 micrograms/ml), the “% C′3 (Type III)” value was 0.05%. Further, the results for the “Type II %” value in experiment [2] (compound at 100 micrograms/ml), in experiment [2] (compound at 200 micrograms/ml) and in experiment [2] (compound at 500 micrograms/ml) were 53.93%, 51.99% and 51.87%, respectively. Further, the “activity per compstatin analog (peptide) moiety compared with CA28” value in experiment [3] is “less than the activity of an individual CA28 molecule”. Further, in experiment [3], the “complement inhibiting activity compared with CA28 on a molar basis” value is on record as “virtually identical”. Also, the “Q1 # Events” value in the experiment with PNH RBCs (Q1 = Type III cells with abnormally high C3d deposition) is 23. Besides, the “Q3 # Events” value in the experiment on PNH RBCs (Q3 = Type III cells without significant C3d deposition) was 153,187. In addition, in the experiment with PNH RBCs (Q4 = Types I and II cells without significant C3d deposition), the “Q4 # Events” value is given as 95,713. Moreover, in the experiment on PNH RBCs (activated complement), the “deposition of C3d / C3 activation products on PNH RBCs” value is listed as “essentially no deposition of C3d”.

B1: (CA28-AEEAc)8-PEG40k (peptide)
peptide: ICVWQDWGAHRCTK
modifications: N-terminal acetyl; 1-methyl-tryptophan at position 4; disulfide Cys2-Cys12; AEEAc linker after Thr13; Lys side chain coupled to one arm of an eight-arm 40 kD PEG (NOF HGEO-400GS); C-terminal amide
As for B1, the “IC50 on a molar basis, classical complement inhibition assay” value in experiment [4] is around 260 nM. In experiment [5], the “IC50, classical complement inhibition assay (C3b deposition ELISA), as a function of CA28 concentration” value was 1930 nM.

B2: CA28-2TS-BF (bifunctionalized PEG-based compstatin analog, TS type) (peptide)
peptide: ICVWQDWGAHRCTK
modifications: N-terminal acetyl; 1-methyl-tryptophan at position 4; disulfide Cys2-Cys12; AEEAc linker after Thr13; Lys side chain coupled through a carbamate to one end of a bifunctional linear 40 kD PEG (TS type); C-terminal amide
Regarding B2, the “IC50 (read off the curve); alternative pathway complement activation (LPS-coated plate, C3b deposition ELISA, human plasma) [B]” value in experiment [6] was around 400 nM.
